Data reported in patent US5229379A, “Certain N-substituted-amino-alkane phosphinic acid derivatives having anti-epileptic properties” (priority 1990, dated 1993).

Legend:
[1] = system: "spike and wave" discharges in epileptic rats (male Wistar rats of the Strasbourg colony); assay: Inhibition of spike and wave discharges in epileptic rats (absence epilepsy model); assay type: in vivo; conditions: epileptic rat model; for minimal effective dose: dose-dependent, read-out: dose that reduces the spike and wave discharges
Source text: Synchronous "spike and wave" discharges (SWD; frontopariental cortex; 7-8 Hz; 300-1000 μV, duration 0.5 to 40 s, mean value=6.0±3.4 s) and frequently myoclonia facialis accompany a cessation of behaviour. These absence-like conditions occur spontaneously and repeatedly. […] In contrast, a strain could be reared in which 100% of the rats are SWD-free (control rats). This pharmacological model is described in Vergnes M., Marescaux C., Micheletti G., Reis J., Depaulis A., Rumbach L. and Warter J. M., Neurosci. Lett. 33. 97-101 (1982).
In this model, for example, the clinically used anti-epileptics ethosuximide, diazepam, trimethadione and sodium valproate in doses≥25 mg/kg (ethosuximide),≥0.5 mg/kg (diazepam) and≥50 mg/kg (trimethadione and sodium valproate) reduce the spike and wave discharges in dose-dependent manner. […] Phenobarbital is effective at from 2.5 to 10 mg/kg and is ineffective at 20 mg/kg. The action of these anti-epileptics on the crises in rats and absences in humans supports the hypothesis that this animal model represents a pharmacological model for absence epilepsy. Its predictive value appears to be at least as good as that of other customary animal models.
The action of GABAB -antagonists was tested on male Wistar rats (300-400 g) of the Strasbourg colony. […] The rats received water and food ad libidum, and the light/dark cycle was 12/12 hours. The rats were anaesthetised with pentobarbital (40 mg/kg i.p.) and implanted bilaterally with 4 stainless steel electrodes (two in the frontal cortex and two in the parietal cortex). The rats were used for experiments no sooner than one week after the operation.
The rats, which were freely mobile, were accommodated in a Plexiglass cage (17×17×28 cm) (one rat per cage), and, after a 15-minute period for adaptation to the new surroundings, the EEG was recorded over a period of 20 minutes (reference period). The reference line for the particular test series is thus obtained. A GABAB -antagonist was then administered and the EEG was recorded over a period of from 120 to 180 minutes. The rats were kept under constant observation during this period and prevented from falling asleep by gentle manual contact.
The test compound was dissolved in 0.9% sodium chloride solution and injected in doses of 50, 100, 200 and 400 mg/kg i.p.. Alternatively, the test compound may be administered in a polyethylene glycol, such as Tween® 80, (2 drops/10 ml of suspension of the test compound in 0.9% sodium chloride solution; the suspension is homogenised at 40° for 10 minutes by means of ultrasound, injection volume: 2 ml/kg) i.p. or by means of a stomach probe p.o.. Test compounds that are soluble with difficulty are advantageously administered in solution in a mixture of dimethyl sulfoxide (not more than 10% by volume) and 0.9% sodium chloride solution or in 45% aqueous hydroxypropyl-β-cyclodextrin solution. Each animal is treated with all doses in a randomised sequence. The time between two treatments should be at least 5 days. The mean values ±SEM of the sum total duration of the "spike and wave" discharges of 6 rats over a period of 20 minutes are recorded.
The sum total duration of the spike and wave discharges (in seconds) is measured for each 20-minute period of the EEG recording. Comparisons between the treatment and the reference period are carried out by means of non-parametric variance analysis of the groups concerned (Friedman test). The control group and the treated groups are compared by means of the Wilcoxon test only when a significant difference between the two groups is found in the Friedmann test. The significances of the differences according to Wilcoxon between doses marked by an asteriks and dose 0 corresponds to p<0,005.

[2] = system: "spike and wave" discharges induced by Vigabatrin® in epileptic rats; assay: Antagonism of the spike and wave discharges induced by Vigabatrin in epileptic rats; assay type: in vivo, rat
Protocol: (§1) The method and test arrangement correspond to those of Pharmacological Example 1.
3-Aminopropyl(diethoxymethyl)phosphinic acid: Antagonism of the "spike and wave" discharges induced by Vigabatrin®.3-Aminopropyl(diethoxymethyl)phosphinic acid was administered at time 0, and 20 mg/kg of Vigabatrin® were administered at time 160, in each case i.p..

[3] = system: "spike and wave" discharges induced by carbamazepine in epileptic rats; assay: Antagonism of the spike and wave discharges induced by carbamazepine in epileptic rats; assay type: in vivo, rat
Protocol: as §1
3-Aminopropyl(diethoxymethyl)phosphinic acid: Antagonism of the "spike and wave" discharges induced by carbamazepine. 3-Aminopropyl(diethoxymethyl)phosphinic acid was administered at time 0, and 20 mg/kg of carbamazepine were administered at time 40, in each case i.p..

[4] = system: "spike and wave" discharges induced by phenytoin in epileptic rats; assay: Antagonism of the spike and wave discharges induced by phenytoin in epileptic rats; assay type: in vivo, rat
Protocol: as §1
3-Aminopropyl(diethoxymethyl)phosphinic acid: Antagonism of the "spike and wave" discharges induced by phenytoin. 3-Aminopropyl(diethoxymethyl)phosphinic acid was administered at time 0, and 20 mg/kg of phenytoin were administered at time 40, in each case i.p..

[5] = system: "epilepsy-like" discharges of pyramidal cells; assay: Penicillin-induced epileptic hippocampus section preparation (antagonism to baclofen); assay type: cell-based
Protocol: The novel GABAB -antagonists according to the invention interact at the GABAB -receptor with IC50 values of approximately 10^-8 M (moles/l) and above in cerebral cortex membranes of rats. […] The compounds according to the invention act as an antagonist to baclofen action at concentrations of from approximately 10 to approximately 100 μM (micromoles/liter). […] At doses of approximately 30 mg/kg, antagonism to the muscle-relaxing action of baclofen occurs, which is measured in the Rotarod model.

## CN1C(=O)OC(C)(C)C1=O [trimethadione]
[1]
  minimal effective dose: ≥ 50 mg/kg

## CCOC(OCC)P(=O)(O)CCCN [3-aminopropyl(diethoxymethyl)phosphinic acid]
[2]; test compound 200 mg/kg i.p. at time 0, Vigabatrin 20 mg/kg i.p. at time 160, period 240-260 min
  sum total duration of the spike and wave discharges: 213 ± 52 s
[2]; test compound 200 mg/kg i.p. at time 0, Vigabatrin 20 mg/kg i.p. at time 160, period 260-280 min
  sum total duration of the spike and wave discharges: 249 ± 57 s
[2]; test compound 400 mg/kg i.p. at time 0, Vigabatrin 20 mg/kg i.p. at time 160, period 240-260 min
  sum total duration of the spike and wave discharges: 44 ± 13 s
[2]; test compound 400 mg/kg i.p. at time 0, Vigabatrin 20 mg/kg i.p. at time 160, period 260-280 min
  sum total duration of the spike and wave discharges: 28 ± 8 s
[3]; test compound 200 mg/kg i.p. at time 0, carbamazepine 20 mg/kg i.p. at time 40, period 0-20 min
  sum total duration of the spike and wave discharges: 353 ± 53 s
[3]; test compound 200 mg/kg i.p. at time 0, carbamazepine 20 mg/kg i.p. at time 40, period 20-40 min
  sum total duration of the spike and wave discharges: 178 ± 37 s
[3]; test compound 200 mg/kg i.p. at time 0, carbamazepine 20 mg/kg i.p. at time 40, period 40-60 min
  sum total duration of the spike and wave discharges: 173 ± 78 s
[3]; test compound 200 mg/kg i.p. at time 0, carbamazepine 20 mg/kg i.p. at time 40, period 60-80 min
  sum total duration of the spike and wave discharges: 70 ± 64 s
[3]; test compound 200 mg/kg i.p. at time 0, carbamazepine 20 mg/kg i.p. at time 40, period 80-100 min
  sum total duration of the spike and wave discharges: 18 ± 17 s
[3]; test compound 400 mg/kg i.p. at time 0, carbamazepine 20 mg/kg i.p. at time 40, period 0-20 min
  sum total duration of the spike and wave discharges: 115 ± 43 s
[3]; test compound 400 mg/kg i.p. at time 0, carbamazepine 20 mg/kg i.p. at time 40, period 20-40 min
  sum total duration of the spike and wave discharges: 93 ± 71 s
[3]; test compound 400 mg/kg i.p. at time 0, carbamazepine 20 mg/kg i.p. at time 40, period 40-60 min
  sum total duration of the spike and wave discharges: 23 ± 14 s
[3]; test compound 400 mg/kg i.p. at time 0, carbamazepine 20 mg/kg i.p. at time 40, period 60-80 min
  sum total duration of the spike and wave discharges: 29 ± 29 s
[3]; test compound 400 mg/kg i.p. at time 0, carbamazepine 20 mg/kg i.p. at time 40, period 80-100 min
  sum total duration of the spike and wave discharges: 9 ± 9 s
[4]; test compound 200 mg/kg i.p. at time 0, phenytoin 20 mg/kg i.p. at time 40, period 0-20 min
  sum total duration of the spike and wave discharges: 394 ± 87 s
[4]; test compound 200 mg/kg i.p. at time 0, phenytoin 20 mg/kg i.p. at time 40, period 20-40 min
  sum total duration of the spike and wave discharges: 172 ± 64 s
[4]; test compound 200 mg/kg i.p. at time 0, phenytoin 20 mg/kg i.p. at time 40, period 40-60 min
  sum total duration of the spike and wave discharges: 124 ± 85 s
[4]; test compound 200 mg/kg i.p. at time 0, phenytoin 20 mg/kg i.p. at time 40, period 60-80 min
  sum total duration of the spike and wave discharges: 239 ± 70 s
[4]; test compound 200 mg/kg i.p. at time 0, phenytoin 20 mg/kg i.p. at time 40, period 80-100 min
  sum total duration of the spike and wave discharges: 95 ± 37 s
[4]; test compound 400 mg/kg i.p. at time 0, phenytoin 20 mg/kg i.p. at time 40, period 0-20 min
  sum total duration of the spike and wave discharges: 139 ± 61 s
[4]; test compound 400 mg/kg i.p. at time 0, phenytoin 20 mg/kg i.p. at time 40, period 20-40 min
  sum total duration of the spike and wave discharges: 48 ± 40 s
[4]; test compound 400 mg/kg i.p. at time 0, phenytoin 20 mg/kg i.p. at time 40, period 40-60 min
  sum total duration of the spike and wave discharges: 31 ± 31 s
[4]; test compound 400 mg/kg i.p. at time 0, phenytoin 20 mg/kg i.p. at time 40, period 60-80 min
  sum total duration of the spike and wave discharges: 56 ± 53 s
[4]; test compound 400 mg/kg i.p. at time 0, phenytoin 20 mg/kg i.p. at time 40, period 80-100 min
  sum total duration of the spike and wave discharges: 42 ± 39 s

## CCC1(C)CC(=O)NC1=O (stereo not shown) [ethosuximide]
[1]
  minimal effective dose: ≥ 25 mg/kg

## NC(=O)N1c2ccccc2C=Cc2ccccc21 [carbamazepine, reference compound]
[3]; carbamazepine 20 mg/kg i.p. at time 40 alone (antagonist dose 0), period 40-60 min
  sum total duration of the spike and wave discharges: 636 ± 43 s
[3]; carbamazepine 20 mg/kg i.p. at time 40 alone (antagonist dose 0), period 60-80 min
  sum total duration of the spike and wave discharges: 669 ± 14 s
[3]; carbamazepine 20 mg/kg i.p. at time 40 alone (antagonist dose 0), period 80-100 min
  sum total duration of the spike and wave discharges: 675 ± 75 s
[1]
  effect on the spike and wave discharges (in words): ineffective or make the attacks worse at high doses

## C=CC(N)CCC(=O)O (stereo not shown) [Vigabatrin®, Vigabatrin, reference compound]
[2]; Vigabatrin 20 mg/kg i.p. at time 160 alone (antagonist dose 0), period 240-260 min
  sum total duration of the spike and wave discharges: 875 ± 63 s
[2]; Vigabatrin 20 mg/kg i.p. at time 160 alone (antagonist dose 0), period 260-280 min
  sum total duration of the spike and wave discharges: 938 ± 65 s

## NCC(CC(=O)O)c1ccc(Cl)cc1 (stereo not shown) [baclofen]
[5]
  concentration that inhibits epilepsy-like discharges of pyramidal cells: 6 µM

## CN1C(=O)CN=C(c2ccccc2)c2cc(Cl)ccc21 [diazepam]
[1]
  minimal effective dose: ≥ 0.5 mg/kg

## CCC1(c2ccccc2)C(=O)NC(=O)NC1=O [Phenobarbital]
[1]; 20 mg/kg
  effect on the spike and wave discharges (in words): ineffective

## CCCC(CCC)C(=O)[O-].[Na+] [sodium valproate]
[1]
  minimal effective dose: ≥ 50 mg/kg

## O=C1NC(=O)C(c2ccccc2)(c2ccccc2)N1 [phenytoin, reference compound]
[4]; phenytoin 20 mg/kg i.p. at time 40 alone (antagonist dose 0), period 40-60 min
  sum total duration of the spike and wave discharges: 555 ± 24 s
[4]; phenytoin 20 mg/kg i.p. at time 40 alone (antagonist dose 0), period 60-80 min
  sum total duration of the spike and wave discharges: 658 ± 27 s
[4]; phenytoin 20 mg/kg i.p. at time 40 alone (antagonist dose 0), period 80-100 min
  sum total duration of the spike and wave discharges: 562 ± 76 s
[1]
  effect on the spike and wave discharges (in words): ineffective or make the attacks worse at high doses
